Legend:
[1] = tested on: ocular active anaphylaxis with egg albumin as an antigen; experiment: Ocular active anaphylaxis, guinea pig egg albumin model; type: in vivo, albino guinea pigs; conditions: FIG. 2; for magnitude of reduction on eyeballs, UP4U versus reference controls: guinea pigs, egg albumin, 2% UP4U, 0.05% levocabastine, 0.025% ketotifen, 0.1% olopatadine eye drops
From the text: The guinea pig model of ocular active anaphylaxis with egg albumin as an antigen, serves as a testing system for anti-inflammatory and anti-allergic drugs (Yamaji, et al., Methods Find. Exp. Clin. Pharmacol. 19(9): 637-43 (1997)). The ocular effects of compounds and vehicle control were investigated using an experimentally-induced ocular active anaphylaxis in the guinea pig. Ten albino guinea pigs per group were sensitized with an intraperitoneal injection of egg albumin, followed 14 days later with a challenge by a single ocular instillation of egg albumin. Four times daily for 3 days and twice on the fourth day (the last one 2 h before challenge), test substances were instilled into the right conjunctival sac of the animals. The immune response was induced by immunization with egg albumin, and the ocular reaction was induced by ocular instillation of egg albumin, thereby causing the release of allergy mediators and ocular edema. Efficacy was evaluated by measuring edema: clinical scores and extravasation of Evans blue dye (blood-eyelids and blood-eyeballs permeability indexes). Comparison was made between the test substances, the test substances vehicle, the reference substance (0.05% levocabastine eye drops—Lévophta®; 0.025% ketotifen eyedrops—Zaditor®; and 0.1% olopatadine eyedrops—Patanol™), and negative control animals (untreated and unchallenged). The model was previously validated (Khosravi, et al., Inflamm. Res. 44(1): 47-54 (1995)).

[2] = tested on: compound 48/80 ocular surface type-1 hypersensitivity; experiment: Ocular Type-1 hypersensitivity in albino rats (topical 48/80 model); type: in vivo; conditions: FIG. 1; for magnitude of reduction in vascular leakage and Evans blue extravasation, UP4U versus reference controls: rats, 48/80, 2% UP4U, 0.05% levocabastine, 0.025% ketotifen, 0.1% olopatadine eye drops
Description: The rat model of ocular immediate (Type-1) hypersensitivity using topical compound 48/80 was used for testing anti-inflammatory drugs (Feinberg and Stokes, Int. Arch. Allergy Appl. Immunol. 82(3-4): 537-8. (1987)). The effects of levocabastine, ketotifen, and olopatadine, which are three approved drugs for the use of ocular surface inflammation, particularly allergic conjunctivitis, were assessed. UP4U was investigated for its effects on mitigating the clinical signs of compound 48/80 on ocular surface type-1 hypersensitivity. Ten albino rats per group were administered compound or vehicle four times daily for 3 days and twice on the fourth day (the last administration 2 h before challenge with 48/80). Comparison was made between the test substances, the test substances vehicle, the reference substance (0.05% levocabastine eye drops—Lévophta®; 0.025% ketotifen eyedrops—Zaditor®; and 0.1% olopatadine eyedrops—Patanol™), and negative control animals (untreated and unchallenged). Eye drops were instilled into the right conjunctival sac of each animal with test substances. […] The formulated compounds or vehicle were allowed to gradually run from the top to the bottom of the ocular surface. Efficacy was evaluated by measuring edema: clinical scores and extravasation of Evans blue dye (blood-eyelids and blood-eyeballs permeability indexes). The model has been previously validated (Khosravi, et al., Inflamm. Res. 44(1): 47-54 (1995)).

[3] = tested on: symptoms of perennial allergic rhinitis (PAR); experiment: Perennial allergic rhinitis symptom study with nasal spray; type: in vivo, humans
From the text: This example illustrates the efficacy of a U[…] nasal spray in reducing the symptoms of perennial allergic rhinitis (PAR) in humans. Patients with PAR suffer year-round from symptoms of allergic rhinitis because they are sensitized to allergens that are present in homes and the environment throughout the year, including dust mites, molds, and animal […] (dogs, cats, cockroaches, etc). Patients with PAR experience a constellation of nasal symptoms including nasal stuffiness/congestion, runny nose, post-nasal drip, sneezing and nasal itching. These symptoms were evaluated in pivotal efficacy trials as the total nasal symptom score (TNSS) as well as by evaluating each individual symptom, including the non-nasal symptoms of facial pain/pressure and cough. Patients rated each individual symptom on a scale from 0 (none) to 3 (severe) twice daily, reflecting their symptoms upon awakening (AM) and throughout the day (PM). Fifty-nine subjects with a documented history of PAR participated in a randomized, double-blind, 3-center, parallel-group study. […] Study medication was delivered twice daily as a non-preserved aqueous nasal spray as 2 sprays (100 μL in each spray) in each nostril. […] This was most notable for the 10 mg/ml U[…] group. Comparisons of pooled active versus placebo TNSS scores approached statistical significance for AM scores (p=0.139). Table 3 indicates the symptom and dose combinations that provided statistically significant reductions (p≦0.05) compared with placebo on any day during the 6-day treatment period. Conversely, significant symptom reductions in favor of placebo were observed on one day (PM sneezing, Day 2).

[4] = tested on: mucociliary clearance of nasal tissue; experiment: Nasal spray saccharin transport time (STT) test; type: in vivo, humans; conditions: for mean STT: pooled PAR and NR and across doses 5-80 mg/mL, single dose nasal spray, with outliers, (±SD); for STT mean (± SD): across all cohorts, NR and PAR groups pooled, without outliers (<1 minute or >30 minutes excluded)
Description: The speed with which the saccharin was transported this distance is a measure of mucociliary clearance.
Sixty subjects, 30 healthy non-rhinitic (NR) volunteers and 30 subjects with perennial allergic rhinitis (PAR), participated in a randomized, double-blind, single-center, 2-period crossover study evaluating escalating, single doses of a UP4dC nasal spray delivered as a non-preserved aqueous nasal spray. Each subject received a single dose (2 sprays in each nostril, 140 μL/spray) of UP4dC and placebo (0.9% w/v saline spray) on two treatment days in random order (crossover design). Five cohorts of 12 subjects received five concentration levels of UP4dC (5, 10, 20, 40, and 80 mg/mL) in ascending order. The STT was performed 5-minutes and 300-minutes post-dose on each treatment day on each subject (a saccharin particle was placed in the nose at 5 and 300 minutes post-dose and then time to taste was recorded).
Analyses were carried out excluding those STT values that were either too fast (<1 minute) or too slow (>30 minutes). Both of these scenarios are deemed as errors and are a likely result of the saccharin particle being inappropriately administered.

[5] = 5 mg/mL, 6-day treatment period
[6] = 10 mg/mL, 6-day treatment period
[7] = 40 mg/mL, 6-day treatment period

Q: For `C[C@@H]1CN([C@H]2CC[C@](C#N)(c3ccc(F)cc3)CC2)CC[C@]1(C(=O)O)c1ccccc1` [levocabastine, reference compound], which “magnitude of reduction on eyeballs, UP4U versus reference controls” value (“magnitude of reduction on eyeballs” below) [1] is on record?
A: comparable

Q: What about the “magnitude of reduction in vascular leakage and Evans blue extravasation, UP4U versus reference controls” value [2] of the same compound?
A: comparable

Q: Which “vascular leakage and Evans blue extravasation on eyeballs” value ([1]; guinea pigs challenged with egg albumin, 2% UP4U eye drops four times daily for 3 days and twice on the fourth day) does the source give for `O=c1ccn([C@@H]2O[C@H](COP(=O)(O)OP(=O)(O)OP(=O)(O)OP(=O)(O)OC[C@H]3O[C@@H](n4ccc(=O)[nH]c4=O)[C@H](O)[C@@H]3O)[C@@H](O)[C@H]2O)c(=O)[nH]1` [UP4U, P^1,P^4-di(uridine 5′-)tetraphosphate] here?
A: reduced

Q: And the “magnitude of reduction on eyeballs” value [1]?
A: comparable

Q: What about the “vascular leakage and Evans blue extravasation on eyelids and eyeballs” value ([2]; rats treated with 48/80 on the ocular surface, 2% UP4U eye drops four times daily for 3 days and twice on the fourth day) of the same compound?
A: reduced

Q: And the “magnitude of reduction in vascular leakage and Evans blue extravasation, UP4U versus reference controls” value [2]?
A: comparable

Q: Which results are given for `Nc1ccn([C@H]2C[C@H](O)[C@@H](COP(=O)(O)OP(=O)(O)OP(=O)(O)OP(=O)(O)OC[C@H]3O[C@@H](n4ccc(=O)[nH]c4=O)[C@H](O)[C@@H]3O)O2)c(=O)n1` [UP4dC, P^1-(2′-deoxycytidine 5′)-P^4-(uridine 5′-)tetraphosphate]?
A: days with statistically significant reductions (p≦0.05) compared with placebo: Nasal blockage/stuffiness [3, 5]: AM-Day 4; days with statistically significant reductions (p≦0.05) compared with placebo: Post-nasal drip [3, 5]: AM-Days 4 and 6; days with statistically significant reductions (p≦0.05) compared with placebo: Nasal blockage/stuffiness [3, 6]: AM-Day 5; days with statistically significant reductions (p≦0.05) compared with placebo: Post-nasal drip [3, 6]: AM-Days 5 and 6; days with statistically significant reductions (p≦0.05) compared with placebo: Rhinorrhea [3, 6]: PM-Day 5; days with statistically significant reductions (p≦0.05) compared with placebo: Total Symptom Score [3, 6]: AM-Days 5 and 6; days with statistically significant reductions (p≦0.05) compared with placebo: Itching [3, 7]: AM-Day 3; days with statistically significant reductions (p≦0.05) compared with placebo: TNSS [3, 7]: AM-Day 3; days with statistically significant reductions (p≦0.05) compared with placebo: Total Symptom Score [3, 7]: PM-Day 5; change from the placebo run-in period in TNSS averaged over the entire 6-day treatment period ([3]; AM (0–15 scale), 5 mg/mL nasal spray twice daily): −0.96 (2.08); change from the placebo run-in period in TNSS averaged over the entire 6-day treatment period ([3]; AM (0–15 scale), 10 mg/mL nasal spray twice daily): −1.20 (2.00); change from the placebo run-in period in TNSS averaged over the entire 6-day treatment period ([3]; AM (0–15 scale), 40 mg/mL nasal spray twice daily): −1.14 (2.02); change from the placebo run-in period in TNSS averaged over the entire 6-day treatment period ([3]; AM + PM (0–30 scale), 5 mg/mL nasal spray twice daily): −2.02 (4.31); change from the placebo run-in period in TNSS averaged over the entire 6-day treatment period ([3]; AM + PM (0–30 scale), 10 mg/mL nasal spray twice daily): −2.59 (4.50); change from the placebo run-in period in TNSS averaged over the entire 6-day treatment period ([3]; AM + PM (0–30 scale), 40 mg/mL nasal spray twice daily): −2.09 (3.99); change from the placebo run-in period in TNSS averaged over the entire 6-day treatment period ([3]; PM (0–15 scale), 5 mg/mL nasal spray twice daily): −0.94 (2.07); change from the placebo run-in period in TNSS averaged over the entire 6-day treatment period ([3]; PM (0–15 scale), 10 mg/mL nasal spray twice daily): −1.26 (2.46); change from the placebo run-in period in TNSS averaged over the entire 6-day treatment period ([3]; PM (0–15 scale), 40 mg/mL nasal spray twice daily): −1.01 (2.55); reductions in TNSS compared with placebo for AM, PM, and AM+PM analyses ([3]; active treatment groups 5, 10, 40 mg/mL, not statistically significant versus placebo): consistently greater reductions; mean STT ([4]; 5-hour (300-minute) post-dose assessment): 9.58 (±10.30) minutes; mean STT ([4]; 5-minute post-dose assessment): 7.04 (±6.06) minutes; STT mean (± SD) ([4]; 5 minute): 6.89 (5.36) minutes; STT mean (± SD) ([4]; 300 minute): 8.41 (5.79) minutes; time elapsed before the saccharin was tasted compared to placebo ([4]; UP4dC nasal spray, single dose, humans): shorten

Q: How did the “magnitude of reduction on eyeballs” value [1] turn out when `CN(C)CC/C=C1/c2ccccc2COc2ccc(CC(=O)O)cc21` [olopatadine, reference compound] was run?
A: comparable

Q: And the “magnitude of reduction in vascular leakage and Evans blue extravasation, UP4U versus reference controls” value [2]?
A: comparable

Q: `CN1CCC(=C2c3ccccc3CC(=O)c3sccc32)CC1` [ketotifen, reference compound] was tested. Which “magnitude of reduction on eyeballs” value [1] did it give?
A: comparable

Q: What about the “magnitude of reduction in vascular leakage and Evans blue extravasation, UP4U versus reference controls” value [2] of the same compound?
A: comparable

Source: patent US7256183B2, “Method for treating or preventing inflammatory diseases” (Inspire Pharmaceuticals, Inc., priority 2001, dated 2007)
